Values quoted from earlier work in patent US20100029729A1, “COMPOUNDS” (priority 2008, published 2010).

How the values were obtained:
[1] = clinical studies, first 24 hours of treatment
circulating lymphocytes = conditions: animals and man

CCCCCCCCc1ccc(CCC(N)(CO)CO)cc1 [FTY720]
bradycardia [1]: results in bradycardia in the first 24 hours of treatment | effect on circulating lymphocytes (circulating lymphocytes): reduce circulating lymphocytes in animals and man
